How the values were obtained:
Assay in all cases: Agar well diffusion antifungal assay against molds
Format in all cases: cell-based
Conditions in all cases: PDA plates, 25° C. 72 hours; NA: No antagonism was observed
[1] = system: Alternaria alternata (Fries) Keissler (ATCC MYA-4642)
Method: (§1) The agar well diffusion assay was performed to evaluate the antagonistic activity of B. amyloliquefaciens 298 against the growth of pathogenic bacteria including Escherichia coli ATCC 22922, Pseudomonas aeruginosa, B. cereus ATCC 27348, Staphylococcus aureus ATCC 11335, Salmonella Typhimurium ATCC 14028 and Listeria innocua ATCC 3586. […] Brain Heart Infusion (BHI) Agar was used for the antagonism against pathogenic microorganisms while the Potato Dextrose Agar (PDA) was used for evaluation against molds. Reference pathogens were prepared using BHI broth at 37° C. for 18 hours while B. amyloliquefaciens 298 was grown using LB broth at 37° C. for 18 hours. Molds were prepared using PDA at 25° C. with 85% HR for 7 days. Mold spores, pathogens and B. amyloliquefaciens 298 were harvested and resuspended in PBS. Pathogens and B. amyloliquefaciens 298 were adjusted to an optical density of 0.2 and 100 uL of pathogen suspended in PBS was spread on BHI agar plates. The same amount of mold spore suspension was inoculated on PDA. Wells were made in all the plates and 20 μL of B. amyloliquefaciens 298 suspensions were inoculated in the wells while the BHI plates were incubated at 37° C. for 24 hours and PDA plates at 25° C. for 72 hours.
(§2) The agar well diffusion assay was performed to evaluate the antagonistic activity of B. subtilis 3 against the growth of pathogenic bacteria including Escherichia coli ATCC 25922, Pseudomonas aeruginosa ATCC 27853, B. cereus ATCC 27348, Staphylococcus aureus ATCC 6538, Salmonella Typhymurium ATCC 14028 and Listeria inocua ATCC 33090. […] Brain Heart Infusion (BHI) Agar was used for the antagonism against pathogenic microorganisms while the Potato Dextrose Agar (PDA) was used for evaluation against molds. Reference pathogens were prepared using BHI broth 37° C. for 18 hours, while B. subtilis 3 was grown using LB broth at 37° C. for 18 hours. Molds were prepared using PDA at 25° C. with 85% HR for 7 days. Mold spores, pathogens and B. subtilis 3 were harvested and resuspended in PBS. […] The same amount of mold spore suspension was inoculated on PDA. […]

[2] = system: Cladosporium sphaerospermum Penzig (ATCC MYA-4645)
Method: as §1, §2

[3] = system: Penicillium chrysogenum Thom (ATCC MYA-4644)
Method: as §1, §2

OO [Hydrogen peroxide 10%, Hydrogen peroxide]
Inhibition zone, Alternaria alternata (Fries) Keissler (ATCC MYA-4642) [1]: 8 mm | Inhibition zone, Cladosporium sphaerospermum Penzig (ATCC MYA-4645) [2]: 12 mm | Inhibition zone, Penicillium chrysogenum Thom (ATCC MYA-4644) [3]: 10 mm
